Assay: Physical properties of the semifluorinated alkanes stated in the description
Assay type: physicochemical
Conditions: for refractive index: at 20° C.; for density: at 25° C.

SMILES | chemical and physiological inertness (in words) | solubility in water (in words) | refractive index | density [g/mL]
CCCCCC(F)(F)C(F)(F)C(F)(F)C(F)(F)F [F4H5, 1-perfluorobutyl-pentane] | chemically and physiologically inert | water-insoluble | 1.3204 | 1.284
CCCCCCCCC(F)(F)C(F)(F)C(F)(F)C(F)(F)C(F)(F)C(F)(F)F [F6H8, 1-perfluorohexyl-octane] | chemically and physiologically inert | water-insoluble | 1.3432 | 1.35

— patent publication US11278503B2, “Pharmaceutical compositions comprising semifluorinated alkanes for the treatment of contact lense-related conditions” (NOVALIQ GMBH, priority 2017, dated 2022)
